Results reported in PubChem BioAssay AID2842 (Southern Research Institute, 2010).
Values after ≈ are worked out from the molar mass of the structure shown.

These molecules were tested on M. tuberculosis H37Rv growth inhibition (assay: Mycobacterium tuberculosis H37Rv growth inhibition, putative kinase inhibitor library, confirmatory dose response (AID 2842);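 note: bacteria incubated one week before Alamar blue readout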).

First: CSc1cccc(-c2nnc(NC(=O)c3cc([N+](=O)[O-])ccc3Cl)o2)c1
Second: COc1cccc(-c2nnc(NC(=O)c3ccc(Cl)s3)o2)c1
The IC90 of the first is higher: 0.88 µg/mL (≈ 2.25 µM) for the first, < 0.2 µg/mL for the second.

Compared with COc1cc2c(=O)c(C(=O)c3ccc(Cl)cc3)cn(Cc3ccccc3F)c2cc1OC, Cc1ccc(C(=O)c2cn(Cc3ccc(F)cc3)c3ccc(F)cc3c2=O)cc1 is 3.6-fold lower in IC90: 45 µg/mL (≈ 99.5 µM) for the first, 12.5 µg/mL (≈ 32.2 µM) for the second.

First: Cc1ccc(C)c(-c2nnc(NC(=O)c3c(F)cccc3F)o2)c1
Second: Cc1ccc(-c2nnc(NC(=O)c3c(F)cccc3F)o2)c(C)c1
The IC90 of the first is 4.6-fold higher: 5.74 µg/mL (≈ 17.4 µM) for the first, 1.25 µg/mL (≈ 3.8 µM) for the second.

Compared with Cc1cc(NC(=O)CSc2nnc(-c3ccncc3)o2)no1, O=C(Nc1nnc(-c2ccncc2)o1)c1ccc(F)cc1 is 2.2-fold lower in IC90: 7.04 µg/mL (≈ 22.2 µM) for the first, 3.23 µg/mL (≈ 11.4 µM) for the second.

CCOC(=O)c1cc(NC(=O)Nc2ccc(Cl)c(Cl)c2)c(C)nc1C and CCOC(=O)c1cnc2ccc(OCC)cc2c1Nc1ccccc1C are within 1.5-fold of each other in IC90: 12.4 µg/mL (≈ 32.5 µM) for the first, 8.82 µg/mL (≈ 25.2 µM) for the second.

Going from O=C(Nc1nnc(-c2cc(Cl)ccc2Cl)o1)c1cc(Cl)ccc1Cl to O=C(Nc1nnc(-c2cc(Cl)ccc2Cl)o1)c1nc2ccccc2s1, the IC90 rises from 0.49 µg/mL (≈ 1.22 µM) to 10.5 µg/mL (≈ 26.7 µM) (21-fold).

First: OCc1nc2ccccc2n1CCCCOc1ccc(Cl)cc1
Second: CCCCCOc1ccc(C(=O)Nc2nnc(-c3ccccn3)o2)cc1
The IC90 of the first is 3.4-fold higher: 7.39 µg/mL (≈ 22.3 µM) for the first, 2.15 µg/mL (≈ 6.1 µM) for the second.

First: CCOC(=O)N1CCc2c(sc(NC(=O)c3ccco3)c2-c2nc3ccccc3s2)C1
Second: CC(=O)N1CCc2c(sc(NC(=O)c3ccccc3Oc3ccccc3)c2C(N)=O)C1
The IC90 of the first is 2.7-fold higher: 50.2 µg/mL (≈ 111 µM) for the first, 18.3 µg/mL (≈ 42 µM) for the second.

Compared with Cc1ccc(C)c(-c2nnc(NC(=O)c3ccc(C#N)cc3)o2)c1, Cc1ccc(C(=O)Nc2nnc(-c3cc(C)ccc3C)o2)c(C)c1 is 3.2-fold lower in IC90: 23.1 µg/mL (≈ 72.5 µM) for the first, 7.29 µg/mL (≈ 22.7 µM) for the second.

Going from Cc1ccc(Cn2cc3c(-c4ccc(C)c(C)c4)nnc-3c3cc4c(cc32)OCCO4)cc1 to COc1ccc(-c2nnc3c4cc(OC)c(OC)cc4n(Cc4ccc(C)cc4)cc2-3)cc1, the IC90 rises from 11.5 µg/mL (≈ 26.5 µM) to 95.4 µg/mL (≈ 217 µM) (8.3-fold).

O=C(OCn1nnc2ccccc2c1=O)c1cccs1 and O=C(c1cccs1)N(CCCn1ccnc1)c1nc2ccccc2s1 are within 1.5-fold of each other in IC90: 4.31 µg/mL (≈ 15 µM) for the first, 6 µg/mL (≈ 16.3 µM) for the second.

COC(=O)c1c(NC(=O)c2ccc3c(c2)CCCC3)sc2c1CCN(C(C)=O)C2 and CCN1CCc2c(sc(NC(=O)c3ccc([N+](=O)[O-])o3)c2C(N)=O)C1 are within 1.5-fold of each other in IC90: 6.21 µg/mL (≈ 15.1 µM) for the first, 6.91 µg/mL (≈ 19 µM) for the second.

Going from CCOC(=O)c1sc(NC(=O)CCSc2ccccc2)cc1C to CCOC(=O)c1c(NC(=O)Cc2cccc3ccccc23)sc2c1CC(C)(C)NC2(C)C, the IC90 rises from 0.82 µg/mL (≈ 2.35 µM) to 2.08 µg/mL (≈ 4.62 µM) (2.5-fold).

Going from Cc1cc(Nc2ccc(C)c(C)c2)n2ncc(-c3ccccc3)c2n1 to COc1cc2ccccc2cc1C(=O)Nc1nnc(-c2cc(C)ccc2C)o1, the IC90 falls from 3.44 µg/mL (≈ 10.5 µM) to 1.23 µg/mL (≈ 3.29 µM) (2.8-fold).

Clc1cc(Cl)c2nc(N3CCCC3)sc2c1 and O=C(COc1ccc(Cl)cc1)N1CCN(c2ccc(N3CCCCC3)nn2)CC1 are within 1.5-fold of each other in IC90: 19 µg/mL (≈ 69.5 µM) for the first, 14.3 µg/mL (≈ 34.3 µM) for the second.

COC(=O)CSCC(=O)Nc1nnc(-c2cccc(C)c2)s1 and CCCC(=O)Nc1nnc(-c2ccccc2)o1 are within 1.5-fold of each other in IC90: 23.9 µg/mL (≈ 70.8 µM) for the first, 22 µg/mL (≈ 95.2 µM) for the second.

O=C(Nc1nnc(C2=COCCO2)o1)c1ccc(Oc2ccccc2)cc1 and CC(C)Oc1ccc(C(=O)Nc2nnc(-c3cc(Cl)ccc3Cl)o2)cc1 are within 1.5-fold of each other in IC90: 16.8 µg/mL (≈ 46 µM) for the first, 13.8 µg/mL (≈ 35.3 µM) for the second.

First: COc1cccc(C(=O)Nc2nnc(-c3ccc(C)cc3C)o2)c1
Second: Cc1ccc(C)c(-c2nnc(NC(=O)Cc3cccc4ccccc34)o2)c1
The IC90 of the first is 3.3-fold higher: 20.8 µg/mL (≈ 64.2 µM) for the first, 6.3 µg/mL (≈ 17.6 µM) for the second.

Compared with O=C(Nc1ncc(Cc2ccc(F)cc2)s1)c1cccc(-n2cnnn2)c1, O=C(Nc1nnc(-c2ccc(F)cc2)o1)c1cccc(Br)c1 is 9.2-fold higher in IC90: 10.2 µg/mL (≈ 26.7 µM) for the first, 93.6 µg/mL (≈ 259 µM) for the second.

Going from CC1(C)CC(=O)c2sc(NC(=O)c3ccc(NS(=O)(=O)c4ccc(Cl)cc4)cc3)nc2C1 to O=C(Nc1nnc(-c2cc(Cl)ccc2Cl)o1)c1ccc(S(=O)(=O)N2CCOCC2)cc1, the IC90 falls from 15.5 µg/mL (≈ 31.7 µM) to 3.86 µg/mL (≈ 7.99 µM) (4-fold).

Compared with Cc1ccc(-c2nnc(NC(=O)C3CCCCC3)o2)c(C)c1, O=C(Nc1nnc(-c2ccc(Cl)cc2)o1)C1CCCCC1 is 1.6-fold lower in IC90: 8.75 µg/mL (≈ 29.2 µM) for the first, 5.6 µg/mL (≈ 18.3 µM) for the second.

Going from Cc1ccc(-c2csc(Nc3nc4cc5c(cc4s3)OCO5)n2)o1 to Fc1cccc2sc(Nc3nc4cc5c(cc4s3)OCO5)nc12, the IC90 falls from 26.6 µg/mL (≈ 74.5 µM) to 11.1 µg/mL (≈ 32.1 µM) (2.4-fold).

COc1ccc(-c2nnc3c4cc(OC)c(OC)cc4n(Cc4ccccc4OC)cc2-3)cc1 and COc1ccc(-c2cc3ccccc3n2CC(O)CNCCc2ccccc2)cc1 (stereo unspecified) are within 1.5-fold of each other in IC90: 5.67 µg/mL (≈ 12.4 µM) for the first, 4.11 µg/mL (≈ 10.3 µM) for the second.

First: CC(C)c1ccc(OCC(=O)Nc2nccs2)cc1
Second: COc1cccc2sc(Nc3nc4ccc(C(C)C)cc4s3)nc12
The IC90 of the first is 3.1-fold higher: 6.88 µg/mL (≈ 24.9 µM) for the first, 2.24 µg/mL (≈ 6.3 µM) for the second.

Compared with CCOc1ccc(C(=O)N2CC(=O)Nc3ccc(Br)cc3C2c2ccccc2)cc1 (stereo unspecified), O=C(Cc1cccc2ccccc12)Nc1nc(-c2ccc(Br)s2)cs1 is 1.6-fold lower in IC90: 25.3 µg/mL (≈ 54.3 µM) for the first, 15.7 µg/mL (≈ 36.5 µM) for the second.

CC(=O)c1cccc(Nc2nc(Nc3ccc(F)c(Cl)c3)nc(N3CCOCC3)n2)c1 and Cc1ccc(Nc2nc(N3CCN(Cc4ccccc4)CC3)nc3nccnc23)cc1 are within 1.5-fold of each other in IC90: 8.38 µg/mL (≈ 18.9 µM) for the first, 7.94 µg/mL (≈ 19.3 µM) for the second.

Going from O=C(Nc1nnc(-c2cccs2)o1)c1ccco1 to O=C(Nc1nnc(-c2cccs2)o1)c1ccc([N+](=O)[O-])s1, the IC90 falls from 3.41 µg/mL (≈ 13.1 µM) to 1.69 µg/mL (≈ 5.24 µM) (2-fold).

First: O=C(Nc1nnc(-c2cc(Cl)ccc2Cl)o1)c1cc(-c2ccccc2)nc2ccccc12
Second: O=C(Nc1nnc(-c2ccc3c(c2)CCCC3)o1)c1ccccc1Cl
The IC90 of the first is 1.8-fold higher: 1.96 µg/mL (≈ 4.25 µM) for the first, 1.11 µg/mL (≈ 3.14 µM) for the second.

Compared with Fc1cccc2sc(Nc3nc(-c4ccccn4)cs3)nc12, Fc1cccc2sc(Nc3nnc(-c4ccccc4)o3)nc12 is higher in IC90: < 0.2 µg/mL for the first, 9.14 µg/mL (≈ 29.3 µM) for the second.

Going from COC(=O)c1cc(C(=O)OC)cc(-n2c(C)cc(C(=O)CCl)c2C)c1 to COc1ccc(C(=O)N(CCCn2ccnc2)c2nc3c(C)ccc(C)c3s2)cc1OC, the IC90 rises from 6.39 µg/mL (≈ 17.6 µM) to 17 µg/mL (≈ 37.7 µM) (2.7-fold).

Compared with O=C(Cc1cccc2ccccc12)Nc1nnc(-c2ccco2)o1, O=C(Nc1nnc(-c2ccco2)o1)c1cccc(C(F)(F)F)c1 is lower in IC90: 6.89 µg/mL (≈ 21.6 µM) for the first, < 0.2 µg/mL for the second.

CS(=O)(=O)c1ccc(CC(=O)Nc2nnc(-c3ccc4c(c3)CCCC4)o2)cc1 and O=C(Nc1nnc(-c2ccc(Br)cc2)o1)c1ccc(S(=O)(=O)N2CCCCCC2)cc1 are within 1.5-fold of each other in IC90: 13.9 µg/mL (≈ 33.7 µM) for the first, 16 µg/mL (≈ 31.7 µM) for the second.

Compared with CCCCC(=O)Nc1nnc(-c2ccc(Br)cc2)o1, O=C(Nc1nnc(-c2ccc(Cl)s2)o1)c1ccc([N+](=O)[O-])o1 is 2.7-fold lower in IC90: 2.3 µg/mL (≈ 7.09 µM) for the first, 0.85 µg/mL (≈ 2.49 µM) for the second.

First: Cc1ccc(NCCn2c(C)cn3c4c(=O)[nH]c(=O)n(C)c4nc23)cc1
Second: Cc1ccc(-n2ncc3c(=O)n(CC(=O)Nc4ccc([N+](=O)[O-])cc4)cnc32)cc1
The IC90 of the first is 2.2-fold higher: 15.1 µg/mL (≈ 42.9 µM) for the first, 6.91 µg/mL (≈ 17.1 µM) for the second.

Going from COc1ccc(-c2ccc(C3C(C#N)=C(N)Oc4n[nH]c(C)c43)o2)cc1 (stereo unspecified) to COc1ccc2nc(NNC(=O)c3cc4ccccc4oc3=O)sc2c1, the IC90 rises from 4.92 µg/mL (≈ 14.1 µM) to 30.8 µg/mL (≈ 83.8 µM) (6.3-fold).

Going from O=C(COc1ccc2c3c(c(=O)oc2c1)CCCC3)OC1CCCCC1 to O=C(Nc1nnc(-c2ccc3c(c2)OCCO3)o1)C1CC1, the IC90 rises from 9.71 µg/mL (≈ 27.2 µM) to 33.9 µg/mL (≈ 118 µM) (3.5-fold).

Going from COc1ccc(Cl)c2sc(N(CCCn3ccnc3)C(=O)c3cccs3)nc12 to CCC(CO)Nc1ncnc2c1cnn2-c1ccc(Cl)c(Cl)c1 (stereo unspecified), the IC90 rises from 1.72 µg/mL (≈ 3.97 µM) to 14.2 µg/mL (≈ 40.5 µM) (8.3-fold).

Going from CC1CCc2nc(Nc3nc4cc5c(cc4s3)OCO5)sc2C1 (stereo unspecified) to Cc1ccc(C)c(-c2nnc(NC(=O)C3=COCCO3)o2)c1, the IC90 falls from 14.4 µg/mL (≈ 41.8 µM) to < 0.2 µg/mL.

Going from CS(=O)(=O)NNc1ccc([N+](=O)[O-])cc1[N+](=O)[O-] to CCOC(=O)Cn1c(=NC(=O)c2ccc([N+](=O)[O-])s2)sc2cc(S(C)(=O)=O)ccc21, the IC90 rises from 11.6 µg/mL (≈ 41.9 µM) to 21.8 µg/mL (≈ 46.5 µM) (1.9-fold).

Compared with OCCN1CCN(c2ncnc3c2cnn3-c2ccc(Cl)c(Cl)c2)CC1, NC(=O)c1oc2ccccc2c1NC(=O)C1CC(=O)N(c2ccc(Cl)cc2)C1 (stereo unspecified) is 4.7-fold lower in IC90: 14.9 µg/mL (≈ 38 µM) for the first, 3.15 µg/mL (≈ 7.92 µM) for the second.

O=C(Nc1cccc(C(F)(F)F)c1)NC1CC(=O)N(c2cccc(F)c2)C1 (stereo unspecified) gave an IC90 of 8.52 µg/mL (≈ 22.3 µM).
